Measured values as given in patent publication US10189843B2, “Fused pyrazole derivative having autotaxin inhibitory activity” (The University of Tokyo, priority 2014, dated 2019).

Target: T1, Human autotaxin enzyme (Homo sapiens, UniProt Q13822)
T1 construct: purchased R&D System
Test: Evaluation of autotaxin inhibitor, Method C (18:0 Lyso PC substrate, choline assay, Resorufin fluorescence)
Assay type: biochemical
Conditions: Method C (Test Example 3), read-out: Inhibitory activity (enzyme inhibitory activity, IC50)
How it was run: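 Recombinant human autotaxin with compound and 200 μM 18:0 Lyso PC (stock) in Tris-HCl pH 7.5, NaCl, MgCl2, Triton X-100, 2 h RT. Released choline detected via choline oxidase/peroxidase/Amplex-type reagent, 20 min, resorufin fluorescence 531/598 nm; % inhibition vs no-compound and no-enzyme controls, concentration-response curve.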

| IC50 | Structure (SMILES) |
| --- | --- |
| ≥ 1000 nM | CCCCCC1CN(CC(=O)N2CCC(N(C)C)CC2)C(=O)c2cc(-c3ccc(Cl)cc3)nn21 (stereo not drawn) [Compound I-0111] |
| ≥ 1000 nM | C[C@H]1CN(CC(=O)N2CCOCC2)C(=O)c2cc(-c3ccc(Cl)cc3)nn21 [Compound I-0152] |
| 10 to 100 nM | C[C@H]1CN(CC(=O)N(C)CCC#N)C(=O)c2cc(-c3ccc(C#N)cc3NC(=O)CC(F)(F)F)nn21 [Compound I-0352] |
| 100 to 1000 nM | CCCCCC1CN(CC(=O)N2CCNCC2)C(=O)c2cc(-c3ccc(Cl)cc3)nn21 (stereo not drawn) [Compound I-0100] |
| 10 to 100 nM | CCCCCC1CN(CC(=O)NCCCC(=O)O)C(=O)c2cc(-c3ccc(Cl)cc3)nn21 (stereo not drawn) [Compound I-0047] |
| ≥ 1000 nM | C[C@H]1CN(Cc2ccc(C#N)cc2)C(=O)c2cc(-c3ccc(Cl)cc3Br)nn21 [Compound I-0326] |
| 100 to 1000 nM | CCCCC1CN(Cc2ccncc2)C(=O)c2cc(-c3ccc(Cl)cc3)nn21 (stereo not drawn) [Compound I-0257] |
| 100 to 1000 nM | CCCCCC1CN(CC(=O)NCC(=O)N(C)C)C(=O)c2cc(-c3ccc(Cl)cc3)nn21 (stereo not drawn) [Compound I-0038] |
| ≥ 1000 nM | C[C@H]1CN(Cc2cccc(OCCCN(C)C)c2)C(=O)c2cc(-c3ccc(Cl)cc3)nn21 [Compound I-0166] |
| ≥ 1000 nM | C[C@H]1CN(CC(=O)N2CCCC(C(=O)O)C2)C(=O)c2cc(-c3ccc(Cl)cc3)nn21 (stereo partly drawn) [Compound I-0159] |
| < 10 nM | CCCOCC1CN(Cc2cccc(C(=O)O)c2)C(=O)c2cc(-c3ccc(Cl)cc3)nn21 (stereo not drawn) [Compound I-0176] |
| 10 to 100 nM | CC(=O)Nc1cc(C#N)ccc1-c1cc2n(n1)C(CC(F)(F)F)CN(Cc1ccc(C#N)cc1)C2=O (stereo not drawn) [Compound I-0370] |
| ≥ 1000 nM | CCCCCC1CN(Cc2cccc(C)c2)C(=O)c2cc(-c3ccc(Cl)cc3)nn21 (stereo not drawn) [Compound I-0128] |
| ≥ 1000 nM | CCCCC1CN(CC2(c3ccc(OC)cc3)CC2)C(=O)c2cc(-c3ccc(Cl)cc3)nn21 (stereo not drawn) [Compound I-0272] |
| ≥ 1000 nM | CCOC(=O)CN1CC(C2CC2)n2nc(-c3ccc(Cl)cc3)cc2C1=O (stereo not drawn) [Compound I-0018] |
| ≥ 1000 nM | C[C@H]1CN(Cc2ccccc2)C(=O)c2cc(-c3ccc(Cl)cc3)nn21 [Compound I-0172] |
| ≥ 1000 nM | CCCCC1CN(Cc2ccc(C#N)cc2)C(=O)c2cc(-c3ccc(Cl)cc3CNC)nn21 (stereo not drawn) [Compound I-0278] |
| 100 to 1000 nM | CCCCC1CN(CCn2cccc2)C(=O)c2cc(-c3ccc(Cl)cc3)nn21 (stereo not drawn) [Compound I-0267] |
| 100 to 1000 nM | CCCCC1CN(Cc2ccc(C#N)cc2)C(=O)c2cc(C3=CCC(C(F)(F)F)CC3)nn21 (stereo not drawn) [Compound I-0276] |
| 100 to 1000 nM | CCCCC1CN(C2CCCCC2=O)C(=O)c2cc(-c3ccc(Cl)cc3)nn21 (stereo not drawn) [Compound I-0263] |
| ≥ 1000 nM | CCCCCC1CN(Cc2ccc(O)cc2)C(=O)c2cc(-c3ccc(Cl)cc3)nn21 (stereo not drawn) [Compound I-0123] |
| 10 to 100 nM | CC(=O)Nc1cc(Cl)cnc1-c1cc2n(n1)[C@@H](C)CN(Cc1ccc(C#N)cc1)C2=O [Compound I-0337] |
| 100 to 1000 nM | CCCCC1CN(Cc2ccc(C#N)cc2)C(=O)c2cc(-c3ccc(OC(F)(F)F)cc3CC#N)nn21 (stereo not drawn) [Compound I-0192] |
| 100 to 1000 nM | CCCCC1CN(Cc2ncn(C)n2)C(=O)c2cc(-c3ccc(Cl)cc3)nn21 (stereo not drawn) [Compound I-0259] |
| 100 to 1000 nM | C[C@H]1CN(CC(=O)C2CCCCN2C(=O)O)C(=O)c2cc(-c3ccc(Cl)cc3)nn21 (stereo partly drawn) [Compound I-0158] |
| 10 to 100 nM | CC(=O)Nc1cc(Cl)ccc1-c1cc2n(n1)[C@@H](C)CN(C[C@H]1CNC(=O)O1)C2=O [Compound I-0316] |
| 100 to 1000 nM | CCCCCC1CN(Cc2ccc(CO)cc2)C(=O)c2cc(-c3ccc(Cl)cc3)nn21 (stereo not drawn) [Compound I-0145] |

| IC50 | Structure (SMILES) |
| --- | --- |
| 10 to 100 nM | CC(=O)Nc1cc(Cl)cc(CO)c1-c1cc2n(n1)[C@@H](C)CN(Cc1ccc(C#N)cc1)C2=O [Compound I-0347] |
| 100 to 1000 nM | CCCCC1CN(CC(=O)NCC(O)CO)C(=O)c2cc(-c3ccc(Cl)cc3)nn21 (stereo not drawn) [Compound I-0219] |
| 100 to 1000 nM | CCCCCC1CN(Cc2cccc(OCCCN(C)C)c2)C(=O)c2cc(-c3ccc(Cl)cc3)nn21 (stereo not drawn) [Compound I-0135] |
| < 10 nM | CCCCCC1CN(CC(=O)N2CCCCC2C(=O)O)C(=O)c2cc(-c3ccc(Cl)cc3)nn21 (stereo not drawn) [Compound I-0052] |
| ≥ 1000 nM | CCCCC1CN(Cc2ccc(C#N)cc2)C(=O)c2cc(-c3ccc(OC)c(CO)c3)nn21 (stereo not drawn) [Compound I-0206] |
| 100 to 1000 nM | CCCCCC1CN(c2ccc(C(=O)O)cc2)C(=O)c2cc(-c3ccc(Cl)cc3)nn21 (stereo not drawn) [Compound I-0179] |
| 10 to 100 nM | CCCCC[C@@H]1CN(CC(=O)N2CCC(C(=O)O)CC2)C(=O)c2cc(-c3ccc(Cl)cc3)nn21 [Compound I-0312] |
| 10 to 100 nM | CCCCC1CN(CCNC(=O)OC(C)(C)C)C(=O)c2cc(-c3ccc(Cl)cc3)nn21 (stereo not drawn) [Compound I-0265] |
| ≥ 1000 nM | C[C@H]1CN(Cc2ccc(C#N)cc2)C(=O)c2cc(-c3ccc(Cl)cc3Nc3nccs3)nn21 [Compound I-0324] |
| 10 to 100 nM | CC(=O)Nc1cc(C#N)ccc1-c1cc2n(n1)[C@@H](C)CN(CC1CCCO1)C2=O (stereo partly drawn) [Compound I-0362] |
| 100 to 1000 nM | CCOC(=O)CN1CC(Cc2ccccc2)n2nc(-c3ccc(Cl)cc3)cc2C1=O (stereo not drawn) [Compound I-0025] |
| ≥ 1000 nM | CCCCCC1CN(CC(=O)N2CCCC2CCCc2ccccc2)C(=O)c2cc(-c3ccc(Cl)cc3)nn21 (stereo not drawn) [Compound I-0078] |
| 100 to 1000 nM | CCCCC1CN(CCN2CCOCC2)C(=O)c2cc(-c3ccc(Cl)cc3)nn21 (stereo not drawn) [Compound I-0273] |
| 10 to 100 nM | CCCCCC1CN(CC(=O)N2CCCC(C(N)=O)C2)C(=O)c2cc(-c3ccc(Cl)cc3)nn21 (stereo not drawn) [Compound I-0095] |
| ≥ 1000 nM | CCOC(=O)CN1CC(CC(F)(F)F)n2nc(-c3ccc(Cl)cc3)cc2C1=O (stereo not drawn) [Compound I-0023] |
| 10 to 100 nM | N#Cc1ccc(CN2CC3CC/C=C\CC(=O)Nc4cc(Cl)ccc4-c4cc(n3n4)C2=O)cc1 (stereo not drawn) [Compound I-0358] |
| ≥ 1000 nM | CCCCC1CN(CN)C(=O)c2cc(-c3ccc(Cl)cc3)nn21 (stereo not drawn) [Compound I-0288] |
| ≥ 1000 nM | CCOC(=O)CN1CC(CC)n2nc(-c3ccc(Cl)cc3)cc2C1=O (stereo not drawn) [Compound I-0017] |
| 10 to 100 nM | CC(=O)Nc1cc(Cl)ccc1-c1cc2n(n1)[C@@H](C(F)(F)F)CN(Cc1ccc(C#N)cc1)C2=O [Compound I-0343] |
| ≥ 1000 nM | CCOC(=O)CN1C(=O)c2cc(-c3ccc(Cl)cc3)nn2[C@@H]2CCC[C@@H]21 [Compound I-0010] |
| ≥ 1000 nM | CCCCC1CN(Cc2ccc(C#N)cc2)C(=O)c2cc(-c3ccc(Cl)cc3CN(C)C)nn21 (stereo not drawn) [Compound I-0282] |
| 10 to 100 nM | CCCOCC1CN(CC(=O)OC(C)(C)C)C(=O)c2cc(-c3ccc(Cl)cc3)nn21 (stereo not drawn) [Compound I-0250] |
| 100 to 1000 nM | CCCCCC1CN(CC(=O)Nc2ccccc2CC(=O)O)C(=O)c2cc(-c3ccc(Cl)cc3)nn21 (stereo not drawn) [Compound I-0067] |
| 100 to 1000 nM | CCCCCC1CN(CC(=O)NC2CCC[C@@H]2C(=O)OCC)C(=O)c2cc(-c3ccc(Cl)cc3)nn21 (stereo partly drawn) [Compound I-0051] |
| 100 to 1000 nM | CCCCCC1CN(CC(=O)N2CCCCC2CC)C(=O)c2cc(-c3ccc(Cl)cc3)nn21 (stereo not drawn) [Compound I-0091] |
| 10 to 100 nM | C[C@H]1CN(Cc2ccc(CC(=O)O)cc2)C(=O)c2cc(-c3ccc(Cl)cc3)nn21 [Compound I-0170] |
| ≥ 1000 nM | CCCCCC1CN(CC(=O)NCCCN(C)C)C(=O)c2cc(-c3ccc(Cl)cc3)nn21 (stereo not drawn) [Compound I-0104] |
